Data: patent US6794149B1, “GABA B receptors” (Bayer Aktiengesellschaft, priority 1999, dated 2004)

Assays:
[1] = system: untransfected control cells (HEK293); assay: cAMP measurement in untransfected HEK293 control cells; format: cell-based; conditions: GABA (100 μM) with forskolin (10 μM), 30 minutes, 37° C., FIG. 2
Method: HEK293 cell strains were used for determining the cAMP concentration. On the one hand, HEK293 cells stably coexpressed the two Drosophila melanogaster receptors D-GABA B R1 and D-GABA B R2 (D-GABA R1/2). On the other hand, untransfected control cells were incorporated into the assay (control). In each case, the cells were plated into 96-well-plates at a density of 20,000 cells per cavity. Control cells were incubated in culture medium (DMEM, 10% FCS, penicillin and streptomycin, 50 U/ml and 50 μg/ml (Life Technologies)) and D-GABA-R1/2 expressing cells in selection medium (culture medium with 0.5 mg/ml Geneticin (G418, Life Technologies)) for 48 hours at 37° C. until a cell density of approximately 80% was reached. Thereupon, the medium was removed, and the cells were washed once with unsupplemented DMEM. After incubation for 30 minutes with IBMX (300 μM) at 37° C., cells were stimulated for 30 minutes with GABA (100 μM) and/or forskolin (10 μM) at 37° C. All incubation steps were carried out in unsupplemented DMEM (Life Technologies). […] The cells were lysed for 20 minutes at room temperature with shaking, and the cAMP concentration of the cell lysates were determined in triplicate using the enzyme immunoassay (EIA) kit AK-200 (Biomol, Hamburg, Germany) following the manufacturer's description.

D-GABA B receptors R1/R2 = assay: cAMP measurement in HEK293 cells stably coexpressing D-GABA B R1/R2; format: cell-based, Drosophila melanogaster; conditions: D-GABA B R1/2-transfected HEK293 cells; GABA (100 μM) with forskolin (10 μM), 30 minutes, 37° C.; FIG. 2
Method: HEK293 cells were cultured at 5% CO2 and 37° C. in Dulbecco's modified Eagle's medium and 10% foetal calf serum. MBS (Stratagene, La Jolla, USA) was used for the gene transfer, following the manufacturer's instructions. 24 h to 48 h after the gene transfer, the cells were sown intro microtiter plates at various densities. Recombinant cells were selected over 3 to 4 weeks by growth in Dulbecco's modified Eagles medium and 10% foetal calf serum and 700 μg/ml Geneticin (G418, Life Technologies, Karlsruhe) as selection marker. Individual resistant clones were analysed as described below.
HEK293 cell strains were used for determining the cAMP concentration. On the one hand, HEK293 cells stably coexpressed the two Drosophila melanogaster receptors D-GABA B R1 and D-GABA B R2 (D-GABA R1/2). On the other hand, untransfected control cells were incorporated into the assay (control). In each case, the cells were plated into 96-well-plates at a density of 20,000 cells per cavity. […] The cells were lysed for 20 minutes at room temperature with shaking, and the cAMP concentration of the cell lysates were determined in triplicate using the enzyme immunoassay (EIA) kit AK-200 (Biomol, Hamburg, Germany) following the manufacturer's description.

## NCCCC(=O)O [GABA, Gamma-amino-butyric acid]
[1]
  forskolin-induced cAMP response (intracellular cAMP concentration): unresponsive
D-GABA B receptors R1/R2
  forskolin-induced cAMP response (intracellular cAMP concentration): marked reduction
